# From PubChem BioAssay AID489041 (Sanford-Burnham Center for Chemical Genomics, 2010)
# pIC50: −log10 of the molar value. Activity calls are given as the source filed them. The rule behind the calls is not given here.
# System: HEK-293T NF-kB luciferase reporter counterscreen, luminescence
# Experiment: inhibitors of HEK-293T NF-kB luciferase – HEK-293T cells, luminescence, counter-screen for T-cell antigen receptor NF-kB inhibitors, dose response (AID 489041)
Compound,IC50,pIC50
c1ccc(-c2cccc(-c3ccccn3)n2)nc1,> 80 µM (inactive),
COc1ccc(CCNc2cc(N3CCN(C(=O)c4ccccc4F)CC3)ccc2[N+](=O)[O-])cc1OC,,6.17
COc1cc(/C=C2/SC(=Nc3ccc(O)cc3)NC2=O)ccc1O,,5.45
CCN1/C(=C/C(C)=C/c2sc3ccccc3[n+]2CC)Sc2ccccc21,,6.11
COC(=O)CCC(=O)NC(=S)Nc1sc(C)c(C)c1C(N)=O,,6.13
CCOC(=O)N/N=C/c1c(C)nn(-c2cccc(C(F)(F)F)c2)c1Cl,,5.05
O=C(N[C@@H](Cc1ccccc1)C(=O)CCl)OCc1ccccc1,,4.80
C=C(C)COc1ccc(-c2n[nH]c(C)c2-c2ccc(OC)c(OC)c2)c(O)c1,,5.03
CCOc1ccccc1NC(=O)Cn1nnc(C(=O)NCc2cccs2)c1N,,5.54
CCOc1cccc(/C=N/Nc2ccc(S(=O)(=O)N(CC)CC)cn2)c1O,,6.51
Cc1ccc(COC(=O)c2cc([N+](=O)[O-])ccc2N2CCOCC2)cc1,,5.48
Cc1cc(NC(=O)CSc2nc3c(sc4ccccc43)c(=O)n2CCCN2CCOCC2)n[nH]1,,5.99
CC(=O)c1ccc(N2CCN(S(=O)(=O)c3ccc4c(c3)CC(C)N4C(=O)C3CC3)CC2)cc1 (stereo not given),,5.51
COc1ccccc1NC(=O)Cn1nnc(C(=O)NCc2cccs2)c1N,,5.71
CC(=O)O[C@@]12CO[C@@H]1C[C@@H](O)[C@@]1(C)C(=O)[C@H](O)C3=C(C)[C@@H](OC(=O)[C@H](O)[C@@H](NC(=O)c4ccccc4)c4ccccc4)C[C@@](O)([C@@H](OC(=O)c4ccccc4)C12)C3(C)C (stereo not given in full),> 80 µM (inactive),
COc1ccc(/C=N/Nc2cc(C)nc3ccc(OC)cc23)c(OC)c1,25.7 µM (inactive),
Cc1cccc(N2CCN(C(=O)c3ccc(CS(=O)(=O)c4ccccc4C)o3)CC2C)c1 (stereo not given),,5.63
CCN1C/C(=C/c2ccc(OC)c(O)c2)C(=O)/C(=C/c2ccc(OC)c(O)c2)C1,39 µM (inactive),
O=C1CC(c2cc(Br)ccc2F)c2cc3c(cc2N1)CCC3 (stereo not given),> 80 µM (inactive),
CCN(c1ccccc1)S(=O)(=O)c1ccc(C(=O)NC2CCN(Cc3ccccc3)CC2)cc1,,5.50
CC(C)Oc1ccccc1C1CC(=O)Nc2cc3c(cc21)OCCO3 (stereo not given),,5.57
Cc1ccc2nc(-c3ccc4c(c3)OCCO4)cn2c1,,5.63
O=C(c1ccc(Br)cc1)c1cc([N+](=O)[O-])ccc1N1CCOCC1,,4.97
O=C(Nc1ccc(N2CCOCC2)cc1)c1ccc(Cl)c(S(=O)(=O)N2CCCCC2)c1,,5.94
CCCc1cc(C(=O)Nc2cc(C)ccc2O)no1,> 80 µM (inactive),

Compound,IC50,pIC50
Cc1cc(=O)oc2cc(OCC3CC(c4ccccc4Cl)=NO3)ccc12 (stereo not given),,5.26
CCOC(=O)N=Nc1c2ccccc2c2nc3no[nH]c3nc12,,6.28
CCCCCN1C=CC(=C2C(=O)c3ccccc3C2=O)C=C1,,5.72
O=C(c1ccc(CS(=O)c2ccccc2Cl)o1)N1CCN(c2ccccn2)CC1 (stereo not given),,4.73
CCN1/C(=C/c2ccc3ccccc3[n+]2CC)C=Cc2ccccc21,,6.00
COc1cc(-c2noc(C)c2/C=C/c2ccc(OC(C)=O)cc2)cc(OC)c1OC,,5.56
O=C(Nc1nc(-c2ccccc2)cs1)c1ccc(N2CCOCC2)c([N+](=O)[O-])c1,,5.96
C=CCSc1nc2ccccc2n1C(=O)/C=C/c1cc(OC)c(OC)c(OC)c1,21.2 µM (inactive),
CCOC(=O)c1[nH]c(C)c(C(=O)Nc2cc(OC)ccc2OC)c1C,> 80 µM (inactive),
Cc1ccc(C)c(N=Nc2ccc(O)c3ncccc23)c1,21 µM (inactive),
COc1cc2c(c(OC)c1OC)-c1ccc(O)cc1[C@@H](NC(C)=O)CC2,> 80 µM (inactive),
O=C(N/N=C/c1ccccc1Cl)c1[nH]c2ccc(Br)cc2c1-c1ccccc1,38.3 µM (inactive),
CCCCN1/C(=C/c2ccc3ccccc3[n+]2CC)Sc2ccccc21,,5.69
N=c1ccn(CC(=O)c2ccc(-c3ccccc3)cc2)cc1,,5.29
Clc1cccc(Cl)c1/C=N/Nc1c(Cl)cncc1Cl,36.7 µM (inactive),
COc1ccc(C(=O)NNC(=O)c2ccccn2)cc1,,5.53
COc1cccc(N2CCN(C(=O)c3ccc(CS(=O)c4ccccc4C)o3)CC2)c1 (stereo not given),,5.09
C=CC[C@@H](CC/C=C/C=C/CC/C=C\[C@@H]1CSC([C@@H]2C[C@@H]2C)=N1)OC,,5.43
COC(=O)c1[nH]c2ccc(F)cc2c1NS(=O)(=O)c1ccc(OC)cc1,,4.93
CC(=O)Nc1ccc(S(=O)(=O)N2c3ccc(F)cc3CCC2C)cc1 (stereo not given),,4.84
Nc1ncn([C@@H]2O[C@H](CO)[C@@H](O)[C@H]2O)c(=O)n1,,5.32
CCN1/C(=C/c2ccc3cc(C)ccc3[n+]2CC)Sc2ccc3sccc3c21,63 µM (inactive),
O=c1cc(-c2ccccc2)[nH]c2cc(Cl)ccc12,,4.72
COc1cccc(C2CC(=O)Nc3cc4c(cc32)CCC4)c1 (stereo not given),,4.97
CCOCCCNC(=O)c1ccc2c(c1)N=C(CC)c1cc(Br)ccc1S2,,5.84

Compound,IC50,pIC50
COc1ccc(C2=Nn3c([n+](C)c4ccccc43)SC2)cc1,,5.58
Cc1ccc(-c2cc(-c3ccc(C)cc3)[n+](-c3ccccc3)c(-c3ccc(C)cc3)c2)cc1,,5.96
Cc1sc2ncnc(NC3CCN(Cc4ccccc4)CC3)c2c1C,,5.62
COc1ccc(C(=O)Nc2ccc3[nH]c(-c4cccc(OC)c4)cc(=O)c3c2)cc1,> 80 µM (inactive),
CSc1nc(N(C)NC(=O)c2cccc(C)c2)c2ccccc2n1,,5.38
CCc1ccc2nc(SCC(=O)Nc3ccccc3N3CCOCC3)c(C#N)cc2c1,> 80 µM (inactive),
C/C=C(\C)C(=O)N[C@@H](c1ccccc1)[C@@H](O)C(=O)O[C@H]1C[C@@]2(O)[C@@H](OC(=O)c3ccccc3)C3[C@](C)(C(=O)[C@H](OC(C)=O)C(=C1C)C2(C)C)[C@@H](O)C[C@H]1OC[C@@]31OC(C)=O (stereo not given in full),> 80 µM (inactive),
CCCOCCOC(=O)c1[nH]c2c(c1C)C(=O)CC(c1cc(OC)ccc1OC)C2 (stereo not given),,6.00
CCOC(=O)N1CCN(C(=O)C2CCCN(Cc3nc(-c4ccc(Cl)cc4)oc3C)C2)CC1 (stereo not given),,5.52
O=C(Nc1ccn(Cc2ccccc2F)n1)c1ccc(COc2ccc(Br)cc2)cc1,,5.81
O=C(N/N=C/c1c(O)ccc2ccccc12)c1cccc(C(F)(F)F)c1,,5.52
COc1cccc(OC)c1C1=NCC(=O)Nc2c1oc1ccc(Br)cc21,,5.48
Cc1cc(C)c(CN2CCN(C(=O)Cn3cnc4c(OCc5ccccc5)ncnc43)CC2)c(C)c1,,5.59
CCCCC(=O)NC(c1ccc(Cl)cc1Cl)c1ccc2cccnc2c1O (stereo not given),> 80 µM (inactive),
COc1ccc(OC)c(C2CC(=O)c3c([nH]c(C(=O)OC(C)C)c3C)C2)c1 (stereo not given),,5.64
COc1cc(-c2c(-c3cc(OC)c(OC)c(OC)c3)noc2C)ccc1F,,6.14
CCOc1cc(C(=O)N/N=C/C(Br)=C/c2ccccc2)cc(OCC)c1OCC,,5.95
COc1cc(C(=O)N2CCN(c3cc(Cl)ccc3Cl)CC2)cc(OC)c1OC,,5.52
CCCCN=C[C@]12CCC(O)CC1(O)CCC1[C@@H]2CC[C@]2(C)[C@H](C3C=CC(=O)O3)CCC12O (stereo not given in full),,6.47
CCN(CC)c1ccc(/C=N/NC(=O)c2cccc(S(=O)(=O)Nc3ccccc3OC)c2)c(O)c1,,6.64
CC(C)(C)c1ccc(C(=O)O/N=C(\N)c2ccccn2)cc1,,6.64
Cc1ccc(/C=C/c2ccc(N(C)C)cc2)[n+](C)c1,,5.57
NC(=O)CC(NC(=O)c1ccc(Br)cc1)c1ccc(N2CCCCCC2)c([N+](=O)[O-])c1 (stereo not given),29.3 µM (inactive),
CCc1c(C)nc2ncnn2c1NCCc1ccc(OC)cc1,,5.52
CC(C)c1ccc(/C=N/Nc2ccc(C(=O)O)cc2)cc1,,5.36

Compound,IC50,pIC50
C[C@]12CC[C@H](O)C[C@H]1CC[C@@H]1[C@@H]2C[C@@H](O)[C@]2(C)[C@@H](C3=CC(=O)OC3)CC[C@]12O,,6.24
CC(C)Nc1ccc(C(CC(N)=O)NC(=O)c2ccc(Br)cc2)cc1[N+](=O)[O-] (stereo not given),> 80 µM (inactive),
C[C@@H]1O[C@@H](O[C@H]2C[C@@H](O)[C@]3(CO)[C@H]4[C@H](O)C[C@]5(C)[C@@H](C6COC(=O)C6)CC[C@]5(O)[C@@H]4CC[C@]3(O)C2)[C@H](O)[C@H](O)[C@H]1O (stereo not given in full),,6.06
CCC(=O)NC(c1ccc(C)cc1)c1ccc2cccnc2c1O (stereo not given),,6.14
Cc1nn(-c2ccccc2Cl)c(Cl)c1/C=N/Nc1nc2ccccc2s1,,> 6.80
COc1ccc(COC(=O)c2cc([N+](=O)[O-])ccc2N2CCOCC2)cc1F,,5.64
CC1C/C(=C/c2ccncc2)C(=O)/C(=C/c2ccncc2)C1 (stereo not given),,5.24
COc1ccc(C(NC(=O)C(C)C)c2ccc3cccnc3c2O)cc1 (stereo not given),> 80 µM (inactive),
COc1ccc(-c2csc(NC(=O)C3CCN(c4ncnc5sc(C)c(C)c45)CC3)n2)cc1OC,,4.88
CC(=O)NC(c1ccc2ccccc2c1)c1ccc2cccnc2c1O (stereo not given),41.3 µM (inactive),
Cc1cc(C)cc(C(=O)N2CC(=O)Nc3ccccc32)c1,,5.33
COc1ccc(-n2cc(-c3ccc(C)cc3)[n+]3c2SCC3)cc1,,5.24
CCn1nc(C)c(CNC(=O)c2ccc(OC3CCN(Cc4ccccn4)CC3)cc2)c1C,,5.76
COc1ccc(NC(=O)/C(Cl)=C(/Cl)S(=O)Cc2ccccc2Cl)cn1 (stereo not given),,5.40
Cc1ccc(NC(=O)c2cc3ccccc3oc2=O)cc1S(=O)(=O)N(C)C,,> 6.80
COc1ccc(N/N=C/c2c(C(=O)O)ccc3ccccc23)cc1,,4.80
CCCC(=O)NC(c1ccc(C(C)C)cc1)c1ccc2cccnc2c1O (stereo not given),,6.18
CC(C)(C)c1cc(C=C(C#N)C#N)cc(C(C)(C)C)c1O,,4.88
COc1cc(NS(C)(=O)=O)ccc1Nc1c2ccccc2nc2ccccc12,> 80 µM (inactive),
CCOC(=O)CSC1=C(C#N)C(c2ccc(C)s2)CC(=O)N1 (stereo not given),,5.42
COc1ccc(OC)c(-c2nnc3n2N=C(c2ccc(OC)c(OC4CCCC4)c2)CS3)c1,,5.51
CC1(C)Cc2nc3sc4c(=O)n(CC(=O)NCc5ccccc5)cnc4c3cc2CO1,> 80 µM (inactive),
Clc1cccc(Cl)c1OCCOCCNCc1ccccc1,68.4 µM (inactive),
O=S1(=O)C=C(Sc2nc3cc(Cl)ccc3o2)c2ccccc21,20.8 µM (inactive),
COc1ccc(C(=O)/C(C#N)=N/Nc2ccc([N+](=O)[O-])cc2)cc1,,6.49
